From patent US20080004296A1, “Organic Compounds” (priority 2004, published 2008)

Test system: tobacco-smoke-enhanced cough response to 0.3 M citric acid
Assay: Citric acid-induced cough and Penh in tobacco smoke-exposed conscious guinea-pigs (plethysmograph)
Format: in vivo, guinea-pig
Conditions: 1 hour prior to citric acid challenge, mean±s.e. mean; for percentage inhibition of tobacco-smoke-enhanced cough: vs vehicle
Method: Male Dunkin-Hartley guinea-pigs (350-550 g) are exposed to either air or tobacco smoke generated by four research cigarettes, (2R4F; Kentucky, USA) for a 3 second puff every 30 sec, for 2 days. At 24 hours after the last exposure conscious, unrestrained animals are placed in a plethysmograph chamber (Buxco, USA) and challenged with an aerosol of 0.3 M citric acid in 0.9% saline for 10 minutes. Cough and Penh AUC (measure of bronchoconstriction) are recorded during the 10 minute exposure and for a further 10 minutes after exposure using the method described in El-Hashim A. et al. Pulmonary Pharmacology & Therapeutics 17(1) (2004) pages 11-18.
To evaluate the effects of 2-(2-Hydroxy-ethylcarbamoyloxymethyl)-5,7-dimethyl-3-(2-methylsulfamoyl-phenyl)-4-oxo-3,4-dihydro-quinazoline-6-carboxylic acid ethyl ester on the enhanced cough response, animals are dosed subcutaneously with the compound (0.3-10 mg/kg, n=3-10) or vehicle (3:1 PEG200:saline, n=10) at 1 hour prior to citric acid challenge. The percentage inhibition of the cough response following compound administration compared with vehicle administration in tobacco smoke-exposed animals is determined. Data are expressed as mean±s.e. mean and significance is defined as p<0.05 (ANOVA & Dunnett's multiple comparison test).

[1] = 3 mg/kg subcutaneously, significant

SMILES: CCOC(=O)c1c(C)cc2nc(COC(=O)NCCO)n(-c3ccccc3S(=O)(=O)NC)c(=O)c2c1C [2-(2-Hydroxy-ethylcarbamoyloxy-methyl)-5,7-dimethyl-3-(2-methylsulfamoyl-phenyl)-4-oxo-3,4-dihydro-quinazoline-6-carboxylic acid ethyl ester]
- inhibition of baseline Penh value (measure of bronchoconstriction) (0.3 mg/kg subcutaneously): 48±17%
- percentage inhibition of tobacco-smoke-enhanced cough (0.3 mg/kg subcutaneously): 18±14%
- inhibition of baseline Penh value (measure of bronchoconstriction) (1 mg/kg subcutaneously): 55±19%
- percentage inhibition of tobacco-smoke-enhanced cough (1 mg/kg subcutaneously, significant): 49±17%
- inhibition of baseline Penh value (measure of bronchoconstriction) [1]: 77±10%
- percentage inhibition of tobacco-smoke-enhanced cough [1]: 80±13%
- inhibition of baseline Penh value (measure of bronchoconstriction) (10 mg/kg subcutaneously): 86±2%
- percentage inhibition of tobacco-smoke-enhanced cough (10 mg/kg subcutaneously, significant): 100±0%
